Assay [1] addresses T1, wild-type S. ramocissimus EF-Tu (Streptomyces ramocissimus, UniProt P29542).
T1 construct: made in house; host or cells: E. coli JM101 (pUSrT1-1)
Nature of the assay: elfamycin binding visualized by non-denaturing PAGE. To be noted: 25 µM aurodox, 15 minutes at 37°C; Western blotting detection. The procedure:
(§1) Susceptibility of the isolated EF-Tu to elfamycin is tested in elfamycin binding studies (G. Chinali et al., Eur. J. Biochem. 75 (1977) 55-65,) and in studies on the inhibition of EF-Tu dependent peptide synthesis (C. Glöckner and H. Wolf, cited above). Still another direct elfamycin binding assay has been developed in which the capacity of the EF-Tu protein to bind elfamycins can be visualized by a change in EF-Tu protein migration in the presence of the elfamycin by non-denaturing PAGE (polyacrylamide gel electrophoresis). Upon elfamycin binding to EF-Tu.GDP, a ternary complex is formed which is more negatively charged than the binary EF-Tu.GDP complex (B. Kraal et al, 1989, in The Guanine-Nucleotide Binding Proteins, pp 121-129, Plenum Press, New York). Consequently elfamycin binding, using e.g. aurodox, to Escherichia coli wild-type EF-Tu increases the migration distance into a non-denaturing polyacrylamide gel. Both the methods of peptide synthesis inhibition and visualization of elfamycin binding are the preferred techniques to determine the effect of elfamycin binding on EF-Tu functioning. These susceptibility assays are important if increased elfamycin resistance of EF-Tu has to be established.
For direct visualization of the elfamycin binding capacity, the mutant proteins were expressed in E. coli JM101 essentially as described in Example 3. […]
In general terms: A western blot detects proteins with antibodies after separation by electrophoresis.

The target of another assay is T2, SrEF-Tu A378F (Streptomyces ramocissimus, UniProt P29542, A379F).
T2 construct: made in house; host or cells: E. coli JM101
T2 sequence (P29542 whole entry A379F): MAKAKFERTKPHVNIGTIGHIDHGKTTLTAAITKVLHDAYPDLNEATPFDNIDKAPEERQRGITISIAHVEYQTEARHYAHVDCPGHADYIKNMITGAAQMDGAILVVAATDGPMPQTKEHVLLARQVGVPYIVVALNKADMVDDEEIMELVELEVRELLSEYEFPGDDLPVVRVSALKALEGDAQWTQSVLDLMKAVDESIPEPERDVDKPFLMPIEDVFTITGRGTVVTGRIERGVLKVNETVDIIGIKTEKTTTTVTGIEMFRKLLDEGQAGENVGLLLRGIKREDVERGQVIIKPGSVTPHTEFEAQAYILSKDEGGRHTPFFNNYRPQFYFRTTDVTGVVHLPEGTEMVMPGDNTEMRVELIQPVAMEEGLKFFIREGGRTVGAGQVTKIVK
Described as above. Details: species or system S. ramocissimus. Conditions: 25 µM aurodox, 15 minutes at 37°C; Western blotting detection. As to the method: as §1
(§2) For direct visualization of the elfamycin binding capacity, the mutant proteins were expressed in E. coli JM101 essentially as described in Example 3. Subsequently, a GDP stabilized S-30, S-100, or purified SrEF-Tu sample was prepared, and incubated with 25 µM aurodox for 15 minutes at 37°C. These samples, and control samples without aurodox were then subjected to non-denaturing 10% polyacrylamide gels and electrophoresed. Detection of the SrEF-Tu species was performed by the Western blotting technique using SrEF-Tu antibodies (Example 1). […] This experiment thus established that elfamycin resistance is most likely the effect of a reduced binding of the elfamycin to the mutant SrEF-Tu proteins.

A further assay deals with T3, SrEF-Tu A378P (Streptomyces ramocissimus, UniProt P29542, A379P).
T3 construct: made in house; host or cells: E. coli JM101
T3 sequence (P29542 whole entry A379P): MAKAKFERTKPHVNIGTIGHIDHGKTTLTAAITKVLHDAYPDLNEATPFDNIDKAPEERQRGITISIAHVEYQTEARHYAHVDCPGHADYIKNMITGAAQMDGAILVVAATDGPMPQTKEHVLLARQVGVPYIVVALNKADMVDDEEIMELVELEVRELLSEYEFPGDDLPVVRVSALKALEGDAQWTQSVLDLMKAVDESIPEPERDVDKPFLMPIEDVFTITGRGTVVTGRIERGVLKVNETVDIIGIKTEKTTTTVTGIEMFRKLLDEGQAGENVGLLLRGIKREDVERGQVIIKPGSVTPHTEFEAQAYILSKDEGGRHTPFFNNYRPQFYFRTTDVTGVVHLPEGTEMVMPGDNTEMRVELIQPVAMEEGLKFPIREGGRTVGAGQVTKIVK
The description is as above. More on the design: species or system S. ramocissimus. To be noted: 25 µM aurodox, 15 minutes at 37°C; Western blotting detection. As to the method: as §1, §2

For another assay, the target named is T4, SrEF-Tu A378T (Streptomyces ramocissimus, UniProt P29542, A379T).
T4 construct: made in house; host or cells: E. coli JM101
T4 sequence (P29542 whole entry A379T): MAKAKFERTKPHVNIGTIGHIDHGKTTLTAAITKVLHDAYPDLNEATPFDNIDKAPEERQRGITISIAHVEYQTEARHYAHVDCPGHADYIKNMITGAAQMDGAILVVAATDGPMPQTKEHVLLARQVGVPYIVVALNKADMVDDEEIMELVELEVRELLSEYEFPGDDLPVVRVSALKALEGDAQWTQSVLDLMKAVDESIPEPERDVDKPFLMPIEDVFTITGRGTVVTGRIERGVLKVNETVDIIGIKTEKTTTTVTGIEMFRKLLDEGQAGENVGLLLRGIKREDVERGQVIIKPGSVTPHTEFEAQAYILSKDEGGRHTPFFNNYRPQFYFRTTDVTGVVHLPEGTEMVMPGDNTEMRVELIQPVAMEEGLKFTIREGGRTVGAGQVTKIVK
Described as above. Details: species or system S. ramocissimus. To be noted: 25 µM aurodox, 15 minutes at 37°C; Western blotting detection. The procedure: as §1, §2

A further assay deals with T5, SrEF-Tu A378V (Streptomyces ramocissimus, UniProt P29542, A379V).
T5 construct: made in house; host or cells: E. coli JM101
T5 sequence (P29542 whole entry A379V): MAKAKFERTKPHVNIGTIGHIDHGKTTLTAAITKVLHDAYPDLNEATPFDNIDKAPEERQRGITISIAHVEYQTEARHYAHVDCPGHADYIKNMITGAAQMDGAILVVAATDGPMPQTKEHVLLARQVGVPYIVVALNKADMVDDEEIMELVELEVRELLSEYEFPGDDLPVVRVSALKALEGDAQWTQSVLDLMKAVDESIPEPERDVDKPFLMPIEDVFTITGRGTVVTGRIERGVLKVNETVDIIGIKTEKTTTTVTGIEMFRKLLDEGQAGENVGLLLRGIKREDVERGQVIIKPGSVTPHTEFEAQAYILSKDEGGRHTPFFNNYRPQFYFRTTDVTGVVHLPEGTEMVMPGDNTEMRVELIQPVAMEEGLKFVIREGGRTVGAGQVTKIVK
The description is as above. More on the design: species or system S. ramocissimus. Conditions: 25 µM aurodox, 15 minutes at 37°C; Western blotting detection. The procedure: as §1, §2

Assay [2] concerns the target T6, major EF-Tu species of S. ramocissimus strain R1V (Streptomyces ramocissimus, UniProt P29542, A379V).
T6 construct: an S-100 extract was prepared from a culture of S. ramocissimus strain R1V; endogenous in cells; host or cells: S. ramocissimus strain R1V (chromosomal tuf1 replaced by the A378V allele)
In words: direct elfamycin binding assay on S-100 extract. To be noted: S-100 extract of strain R1V; 25 µM Aurodox. The procedure: as §2
To establish that S. ramocissimus strain R1V actually expresses the mutated Srtuf1 gene as the main EF-Tu species, an S-100 extract was prepared from a culture of S. ramocissimus strain R1V essentially as described in Example 1. Subsequently this extract was subjected to the direct elfamycin binding assay outlined in Example 6.

SMILES strings stand for the structures.

T6 sequence (P29542 whole entry A379V): as above
T1 sequence (P29542 whole entry): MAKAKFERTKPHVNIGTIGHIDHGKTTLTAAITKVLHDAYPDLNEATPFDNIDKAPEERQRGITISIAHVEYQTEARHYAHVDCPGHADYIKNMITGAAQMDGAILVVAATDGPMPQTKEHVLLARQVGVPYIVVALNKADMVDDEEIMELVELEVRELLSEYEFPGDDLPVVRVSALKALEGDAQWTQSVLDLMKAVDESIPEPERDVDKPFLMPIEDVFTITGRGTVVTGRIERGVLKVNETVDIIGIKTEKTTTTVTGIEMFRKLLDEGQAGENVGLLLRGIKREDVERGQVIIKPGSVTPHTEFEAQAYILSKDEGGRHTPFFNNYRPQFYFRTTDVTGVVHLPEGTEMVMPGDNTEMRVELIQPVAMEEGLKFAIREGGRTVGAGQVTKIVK

As for `C/C=C\C=C\[C@@H]1O[C@](O)([C@H](CC)C(=O)NC/C=C/C=C(\C)[C@@H](OC)[C@@H](C)[C@@H]2O[C@H](/C=C/C=C/C=C(\C)C(=O)c3c(O)ccn(C)c3=O)[C@H](O)[C@@H]2O)[C@H](O)[C@H](O)C1(C)C` [aurodox, N-Methylmocimycin], the “elfamycin binding (migration in non-denaturing PAGE)” value is “appears to bind” in assay [1]; “unaffected” at SrEF-Tu A378F; “unaffected” on SrEF-Tu A378P; “unaffected” on SrEF-Tu A378T; “unaffected” on SrEF-Tu A378V; “unable to bind” in assay [2].

The values are drawn from patent EP0466251A1, “Elfamycin-resistant mutants” (priority 1990, dated 1992).
